Data from ChEMBL document CHEMBL1145852, “Drug rings database with web interface. A tool for identifying alternative chemical rings in lead discovery programs” (J Med Chem, 2003).

These compounds were tested against T1, Endothelin-1 receptor (Homo sapiens, UniProt P25101) (assay: Potency at Endothelin A receptor was determined).
T1 sequence (P25101 whole entry): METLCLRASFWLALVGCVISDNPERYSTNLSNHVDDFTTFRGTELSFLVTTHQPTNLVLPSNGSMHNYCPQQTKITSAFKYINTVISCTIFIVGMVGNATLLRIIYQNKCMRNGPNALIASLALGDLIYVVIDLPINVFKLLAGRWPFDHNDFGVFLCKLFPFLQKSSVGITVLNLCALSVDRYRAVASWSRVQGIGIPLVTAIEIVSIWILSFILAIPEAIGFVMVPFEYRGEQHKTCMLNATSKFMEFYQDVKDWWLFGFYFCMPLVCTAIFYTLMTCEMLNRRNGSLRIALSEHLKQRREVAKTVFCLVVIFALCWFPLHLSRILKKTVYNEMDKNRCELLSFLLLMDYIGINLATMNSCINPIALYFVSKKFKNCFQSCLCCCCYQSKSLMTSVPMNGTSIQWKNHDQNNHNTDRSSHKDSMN

Row | IC50 [nM] | Structure (SMILES)
1 | 97 | CCCOc1ccc2c(c1)c(-c1ccc3c(c1)OCO3)c(C(=O)O)n2Cc1ccc2nsnc2c1
2 | 2500 | CCCOc1ccc2c(c1)c(-c1ccc3c(c1)OCO3)c(C(=O)O)n2Cc1ccc2nonc2c1

Second part, the compound before the results:

Row | Structure (SMILES) | IC50 [nM]
3 | CCCOc1ccc2c(c1)c(-c1ccc3c(c1)OCO3)c(C(=O)O)n2Cc1ccc2c(c1)OCO2 | 250
4 | COc1cc2c(-c3ccc4c(c3)OCO4)c(C(=O)O)n(Cc3ccc4c(c3)OCO4)c2cc1OC | 150
5 | COc1cc2c(-c3ccc4c(c3)OCO4)c(C(=O)O)n(Cc3ccc4nsnc4c3)c2cc1OC | 33
